ChEMBL document CHEMBL1140998, “RNA bandages for photoregulating in vitro protein synthesis” (Bioorg Med Chem Lett, 2008)
Activity calls are given as the source filed them. The rule behind the calls is not given here.

Legend:
Aequorea victoria [1] = assay: Binding affinity to Aequorea victoria GFP mRNA (1-26) assessed as change in melting temperature
Aequorea victoria [2] = assay: Binding affinity to Aequorea victoria GFP mRNA (1-26) assessed as melting temperature
Aequorea victoria [3] = assay: Blockade of Aequorea victoria GFP mRNA (1-26) translation activity assessed as reduction in protein expression level at a drug:mRNA molar ratio of 2:1 measured after UV irradiation by gel electrophoresis
Aequorea victoria [4] = assay: Blockade of Aequorea victoria GFP mRNA (1-26) translation activity assessed as reduction in protein expression level at a drug:mRNA molar ratio of 2:1 measured prior to UV irradiation by gel electrophoresis; parameters: scale not given: the % may be the effect or the level left
Aequorea victoria [5] = assay: Blockade of Aequorea victoria GFP mRNA (1-26) translation activity assessed as reduction in protein expression level at a drug:mRNA molar ratio of 12:1 measured prior to UV irradiation by gel electrophoresis; parameters: scale not given: the % may be the effect or the level left
Aequorea victoria [6] = assay: Blockade of Aequorea victoria GFP mRNA (1-26) translation activity assessed as reduction in protein expression level measured after UV irradiation at a drug:mRNA molar ratio of 12:1 measured after UV irradiation by gel electrophoresis

Row | ΔTm (Aequorea victoria [1]) | Tm (Aequorea victoria [2]) | Activity (Aequorea victoria [3]) | Activity (Aequorea victoria [4]) | Activity (Aequorea victoria [5]) | Activity (Aequorea victoria [6]) | Structure (SMILES)
1 | 20 °C | 72.4 °C | Active | 100% | – | – | CC(OC(=O)NCCCCCCOC[C@H]1O[C@@H](n2ccc(N)nc2=O)[C@H](O)[C@@H]1OP(=O)(O)OC[C@H]1O[C@@H](n2ccc(=O)[nH]c2=O)[C@H](O)[C@@H]1OP(=O)(O)OC[C@H]1O[C@@H](n2cnc3c(N)ncnc32)[C@H](O)[C@@H]1OP(=O)(O)OC[C@H]1O[C@@H](n2cnc3c(=O)[nH]c(N)nc32)[C@H](O)[C@@H]1OP(=O)(O)OC[C@H]1O[C@@H](n2ccc(N)nc2=O)[C@H](O)[C@@H]1OP(=O)(O)OC[C@H]1O[C@@H](n2ccc(N)nc2=O)[C@H](O)[C@@H]1OP(=O)(O)OC[C@H]1O[C@@H](n2cnc3c(N)ncnc32)[C@H](O)[C@@H]1OP(=O)(O)OC[C@H]1O[C@@H](n2cnc3c(=O)[nH]c(N)nc32)[C@H](O)[C@@H]1OC[C@H]1O[C@@H](n2ccc(N)nc2=O)[C@H](O)[C@@H]1OC[C@H]1O[C@@H](n2ccc(=O)[nH]c2=O)[C@H](O)[C@@H]1O)c1cc(CN2C(=O)CC(SCCCO[C@H]3[C@@H](O)[C@H](n4ccc(=O)[nH]c4=O)O[C@@H]3COP(=O)(O)O[C@H]3[C@@H](O)[C@H](n4cnc5c(=O)[nH]c(N)nc54)O[C@@H]3COP(=O)(O)O[C@H]3[C@@H](O)[C@H](n4ccc(=O)[nH]c4=O)O[C@@H]3COP(=O)(O)O[C@H]3[C@@H](O)[C@H](n4cnc5c(=O)[nH]c(N)nc54)O[C@@H]3COP(=O)(O)O[C@H]3[C@@H](O)[C@H](n4cnc5c(=O)[nH]c(N)nc54)O[C@@H]3COP(=O)(O)O[C@H]3[C@@H](O)[C@H](n4ccc(=O)[nH]c4=O)O[C@@H]3COP(=O)(O)O[C@H]3[C@@H](O)[C@H](n4cnc5c(N)ncnc54)O[C@@H]3COP(=O)(O)O[C@H]3[C@@H](O)[C@H](n4ccc(N)nc4=O)O[C@@H]3CO[C@H]3[C@@H](O)[C@H](n4ccc(N)nc4=O)O[C@@H]3CO[C@H]3[C@@H](O)[C@H](n4cnc5c(=O)[nH]c(N)nc54)O[C@@H]3CO)C2=O)ccc1[N+](=O)[O-] (some centres not stated)
2 | 32 °C | 62.2 °C | – | – | 10% | Active | CC(OC(=O)NCCCCCCOC[C@H]1O[C@@H](n2ccc(N)nc2=O)[C@H](O)[C@@H]1OP(=O)(O)OC[C@H]1O[C@@H](n2ccc(=O)[nH]c2=O)[C@H](O)[C@@H]1OP(=O)(O)OC[C@H]1O[C@@H](n2cnc3c(N)ncnc32)[C@H](O)[C@@H]1OP(=O)(O)OC[C@H]1O[C@@H](n2cnc3c(=O)[nH]c(N)nc32)[C@H](O)[C@@H]1OP(=O)(O)OC[C@H]1O[C@@H](n2ccc(N)nc2=O)[C@H](O)[C@@H]1OP(=O)(O)OC[C@H]1O[C@@H](n2ccc(N)nc2=O)[C@H](O)[C@@H]1OP(=O)(O)OC[C@H]1O[C@@H](n2cnc3c(N)ncnc32)[C@H](O)[C@@H]1OP(=O)(O)OC[C@H]1O[C@@H](n2cnc3c(=O)[nH]c(N)nc32)[C@H](O)[C@@H]1OC[C@H]1O[C@@H](n2ccc(N)nc2=O)[C@H](O)[C@@H]1OC[C@H]1O[C@@H](n2ccc(=O)[nH]c2=O)[C@H](O)[C@@H]1O)c1cc(CN2C(=O)CC(SCCCO[C@H]3[C@@H](O)[C@H](n4ccc(=O)[nH]c4=O)O[C@@H]3COP(=O)(O)O[C@H]3[C@@H](O)[C@H](n4cnc5c(=O)[nH]c(N)nc54)O[C@@H]3COP(=O)(O)O[C@H]3[C@@H](O)[C@H](n4ccc(=O)[nH]c4=O)O[C@@H]3COP(=O)(O)O[C@H]3[C@@H](O)[C@H](n4cnc5c(=O)[nH]c(N)nc54)O[C@@H]3COP(=O)(O)O[C@H]3[C@@H](O)[C@H](n4cnc5c(=O)[nH]c(N)nc54)O[C@@H]3COP(=O)(O)O[C@H]3[C@@H](O)[C@H](n4ccc(=O)[nH]c4=O)O[C@@H]3COP(=O)(O)O[C@H]3[C@@H](O)[C@H](n4cnc5c(N)ncnc54)O[C@@H]3COP(=O)(O)O[C@H]3[C@@H](O)[C@H](n4ccc(N)nc4=O)O[C@@H]3CO)C2=O)ccc1[N+](=O)[O-] (some centres not stated)
3 | 24 °C | 81.2 °C | Active | 100% | – | – | CC(OC(=O)NCCCCCCOC[C@H]1O[C@@H](n2ccc(N)nc2=O)[C@H](O)[C@@H]1OP(=O)(O)OC[C@H]1O[C@@H](n2ccc(N)nc2=O)[C@H](O)[C@@H]1OP(=O)(O)OC[C@H]1O[C@@H](n2cnc3c(N)ncnc32)[C@H](O)[C@@H]1OP(=O)(O)OC[C@H]1O[C@@H](n2cnc3c(=O)[nH]c(N)nc32)[C@H](O)[C@@H]1OP(=O)(O)OC[C@H]1O[C@@H](n2ccc(N)nc2=O)[C@H](O)[C@@H]1OP(=O)(O)OC[C@H]1O[C@@H](n2ccc(=O)[nH]c2=O)[C@H](O)[C@@H]1OP(=O)(O)OC[C@H]1O[C@@H](n2ccc(=O)[nH]c2=O)[C@H](O)[C@@H]1OP(=O)(O)OC[C@H]1O[C@@H](n2cnc3c(=O)[nH]c(N)nc32)[C@H](O)[C@@H]1OP(=O)(O)OC[C@H]1O[C@@H](n2cnc3c(=O)[nH]c(=O)[nH]c32)[C@H](O)[C@@H]1OP(=O)(O)OC[C@H]1O[C@@H](n2cnc3c(=O)[nH]c(=O)[nH]c32)[C@H](O)[C@@H]1OP(=O)(O)OC[C@H]1O[C@@H](n2ccc(=O)[nH]c2=O)[C@H](O)[C@@H]1OP(=O)(O)OC[C@H]1O[C@@H](n2ccc(N)nc2=O)[C@H](O)[C@@H]1O)c1cc(CN2C(=O)CC(SCCCO[C@H]3[C@@H](O)[C@H](n4cnc5c(=O)[nH]c(N)nc54)O[C@@H]3COP(=O)(O)O[C@H]3[C@@H](O)[C@H](n4cnc5c(N)ncnc54)O[C@@H]3COP(=O)(O)O[C@H]3[C@@H](O)[C@H](n4ccc(=O)[nH]c4=O)O[C@@H]3COP(=O)(O)O[C@H]3[C@@H](O)[C@H](n4ccc(N)nc4=O)O[C@@H]3CO[C@@H]3[C@H](O)[C@@H](COP(=O)(O)O[C@H]4[C@@H](O)[C@H](n5cnc6c(=O)[nH]c(N)nc65)O[C@@H]4COP(=O)(O)O[C@H]4[C@@H](O)[C@H](n5ccc(=O)[nH]c5=O)O[C@@H]4COP(=O)(O)O[C@H]4[C@@H](O)[C@H](n5cnc6c(=O)[nH]c(N)nc65)O[C@@H]4COP(=O)(O)O[C@H]4[C@@H](O)[C@H](n5cnc6c(=O)[nH]c(N)nc65)O[C@@H]4COP(=O)(O)O[C@H]4[C@@H](O)[C@H](n5ccc(=O)[nH]c5=O)O[C@@H]4COP(=O)(O)O[C@H]4[C@@H](O)[C@H](n5cnc6c(N)ncnc65)O[C@@H]4COP(=O)(O)O[C@H]4[C@@H](O)[C@H](n5ccc(N)nc5=O)O[C@@H]4CO)O[C@H]3n3ccc(=O)[nH]c3=O)C2=O)ccc1[N+](=O)[O-] (some centres not stated)
